The subject of data set [1] is primary cocultures of central neurons and oligodendrocytes. Kind of data set: In vitro MS (myelination) model. The format is cell-based, rat. As for the experimental part:
A reproducible in vitro myelination model based on primary cocultures of central neurons and oligodendrocytes culturing in 96-well plate is used and adapted to high throughput screening.
Neurons/oligodendrocytes were cultured as previously described by Charles et al., 2000. PNAS 97 7585-7590.
Briefly, pregnant Wistar female rats of 17 days gestation were killed by cervical dislocation (Janvier Labs, France) and the foetuses removed from the uterus. The forebrains were removed and placed in ice-cold medium of Leibovitz (L15; Pan Biotech, Germany) containing 2% of Penicillin-Streptomycin (Batch 1451013, PanBiotech) and 1% of bovine serum albumin (BSA) (Batch K180713, Pan Biotech). Cortexes were dissociated by trypsinisation for 20 min at 37° C., with Trypsin EDTA 1× (Batch 7310713, PanBiotech). The reaction was stopped by the addition of Dulbecco's modified Eagle's medium (DMEM) (Batch 9710913, PanBiotech) containing DNAase I grade II at 0.1 mg/mL (Batch H131108, PanBiotech) and 10% of foetal calf serum (Batch 41Q7218K, Invitrogen, France). Cells were then mechanically dissociated by 3 passages through a 10 mL pipette. Cells were centrifuged at 180×g for 10 min at 4° C. temperature on a layer of BSA (3.5%) in L15 medium. The supernatant was discarded and cells of the pellet were re-suspended in DMEM containing 10% of FCS. […] The supernatant was discarded and cells of pellet were re-suspended in a culture medium consisting of Neurobasal (Batch 1625353, Invitrogen) supplemented with 2% of B27 (Batch 1618508, Invitrogen), 2 mM of L-glutamine (Batch 6620314, PanBiotech), 2% of PS solution, 1% of foetal calf serum (FCS) and 10 ng/mL of platelet-derived growth factor (PDGF-AA) (Batch H131205, PanBiotech).
The plates were maintained at 37° C. in a humidified incubator, in an atmosphere of air (95%)-CO2 (5%). Half of the medium was changed every 2 days with fresh medium in presence or absence of compound.
Plate 1 for Day 12 (A2B5) and plate 2 for Day 18 (MAG evaluation) • Control (vehicle) • Compound CR777 of example 1 (1 pmol/L) • Compound CR777 of example 1 (10 pmol/L) • Compound CR777 of example 1 (100 pmol/L) • Compound CR777 of example 1 (1 nmol/L) • Compound CR777 of example 1 (10 nmol/L) • Compound CR777 of example 1 (100 nmol/L) • Compound CR777 of example 1 (1 μmol/L) • Compound CR777 of example 1 (10 μmol/L)
The cells were then permeabilized and non-specific sites were blocked with a solution of phosphate buffered saline (Batch 3010914, PanBiotech) containing 0.1% of saponin (Batch BCBJ8417V, Sigma) and 1% FCS for 15 min at room temperature.
On day 12, cells were incubated with Monoclonal Anti-A2B5 conjugated Alexa Fluor® 488 produced in mouse (Batch 2281669, Millipore, France) at dilution of 1/200 in PBS containing 1% FCS, 0.1% saponin, and with anti-MAP-2 antibody produced in chicken (Batch GR180541-3, AbCam; United Kingdom) at dilution of 1/1000 in PBS containing 1% FCS, 0.1% saponin for 2 h at room temperature. […]
The immunolabeled cultures were automatically examined with ImageXpress (Molecular Devices) equipped with a LED at ×20 magnification. […] Number of A2B5 positive cells and number of MAG positive cells were automatically analyzed by using Custom module editor (Molecular Devices). […] All values were expressed as mean+/−SEM (s.e.mean) of the 6 wells. […]

The subject of data set [2] is Human MRC-5 cell line derived from normal lung tissue. Kind of data set: Cytotoxicity test, cell growth inhibition by MTS assay. The settings on record: MRC-5, 72 h incubation, 8 concentrations. It is filed as cell-based. Here is the method:
(§1) Human MRC-5 cell line derived from normal lung tissue and human HCT-116 colorectal carcinoma were obtained from the American Type Culture Collection (ATCC, Rockville, Md.). Primary Human Umbilical Vein Endothelial Cells (HUVEC) isolated from the vein of the umbilical cord were obtained from Promocell (Germany). Cell lines were cultured according to the supplier's instructions. Human HCT-116 cells were grown in Gibco McCoy's 5A supplemented with 10% fetal calf serum (FCS) and 1% glutamine. Human MRC-5 cells were grown in DMEM supplemented with 10% fetal calf serum (FCS) and 1% glutamine. HUVECs were grown in Endothelial Cell Growth Medium 2 which is low-serum (2% V/V) media optimized for the cultivation of endothelial cells from large blood vessels.
(§2) Cells were counted using a Vi-cell XR (Beckman Coulter) and their viability assessed by 0.25% trypan blue dye exclusion. They were tested for the presence of mycoplasma before experiments with the Mycoplasma PCR Detection Kit (Applied Biological Materials Inc., Canada) in accordance with the manufacturer instructions and only mycoplasma-free cells were used for further investigations.
(§3) Cell lines were maintained at 37° C. in a humidified atmosphere containing 5% CO2. Cell growth inhibition was determined by an MTS assay according to the manufacturer's instructions (Promega, Madison, Wis., USA). […] After 24 h of culture, the cells were treated with the compound CR777 of example 1 at 8 different final concentrations. Each concentration was obtained from serial dilutions in culture medium starting from the stock solution. Control cells were treated with the vehicle. Experiments were performed in triplicate.
(§4) After 72 h of incubation, 20 μL of CellTiter 96® AQueous One Solution Reagent was added for 2 h before recording absorbance at 490 nm with a spectrophotometric plate reader. The dose-response curves were plotted with Graph Prism software and the IC50 values were calculated using the Graph Prism software from polynomial curves (four or five-parameter logistic equations).

The subject of data set [3] is Primary Human Umbilical Vein Endothelial Cells (HUVEC). The data set is described as above. The format is cell-based. The settings on record: 72 h incubation, 8 concentrations. As for the experimental part:
as §1, §2, §3, §4

Data set [4] relates to human HCT-116 colorectal carcinoma. Described as above. The settings on record: HCT-116, 72 h incubation, 8 concentrations. It is filed as cell-based. As for the experimental part:
as §1, §2, §3, §4

[5] abbreviates: 18 days of treatment, significant from 1 pmol/L up to 1 μmol/L, not at 10 μM.

The structures appear in SMILES notation.

For `CC1=C(CO)C(=O)O[C@@H]([C@@H](C)[C@H]2CCC3C4C[C@H](SC[C@H](NC(=O)CC[C@@H](N)C(=O)O)C(=O)NCC(=O)O)[C@]5(O)[C@@H](O)C=CC(=O)[C@]5(C)C4CC[C@@]32C)C1` (some centres unmarked) [CR777], the “OPC (precursor cells of oligodendrocytes) number, A2B5 positive cells” value in data set [1] (12 days treatment, 1 pmol/L to 10 μmol/L) is given as “did not show any significant increase”. The “total number of OPCs” value in data set [1] (12 days treatment, at the highest doses) is on record as “decrease of the total number of OPCs”. In data set [1] (18 days of treatment, all doses), the “maximal effect on MAG, increase vs control” value is recorded as around 60%. Moreover, the “myelination of neurons by OL (area of MAG expression)” value in data set [1] (setting [5]) was “significantly improved”. Moreover, the “number of MAG positive cells (OL)” value in data set [1] (setting [5]) is recorded as “able to increase the number of MAG positive cells”. Moreover, the “toxicity (cell growth inhibition, MTS)” value in data set [2], in data set [3] and in data set [4] was “does not show any toxicity” each time.

Source of the values: US11634452B2, “Compounds for treating neurodegenerative disorders” (ETHNODYNE, priority 2017, dated 2023).
